“Also recorded” adds a separate entry of the source.
Assays:
[1] = isosorbide dinitrate in an aqueous suspension; Fragrance Journal, p34, 1996-4; cited from earlier work
[2] = combined together with indomethacin; YAKUZAIGAKU vol.56 No.3 (1996), DDS Vol. 12 No. 2 (1997); cited from earlier work
skin of Yucatan Micropig [3] = experiment: Dermal permeation test of indomethacin (IM), Example 1, water/ethanol samples, modified Franz diffusion cell; format: in vitro ADME; conditions: indomethacin 0.05 g, promoting agent 0.3 g, water 6.0 ml / ethanol 4.0 ml, 37° C., 30 to 48 hours
Excerpt: (§1) A lipophilic agent indomethacin (IM) and a hydrophilic agent antipyrine (ANP) were used to compare the dermal absorption-promoting effect of p-menthane-3,8-diol (MDM: mixture of trans and cis forms) with those of l-menthol (LM) and 3-l-menthoxypropane-1,2-diol (MPD) together with a control.
(§2) According to the formulations shown in Table 1 (IM) and Table 2 (ANP), each of the three dermal absorption-promoting agents was employed, dissolved in ethanol and combined with water to prepare a sample. The samples thus prepared were stored at 37° C. until use.
(§3) A skin of Yucatan Micropig [5 month-old, male, NIPPON CHARLES RIVER (KK)] stored frozen at −80° C. was thawed at room temperature and, after removing an unwanted fat adhering to the skin, cut into pieces, each in about 2 cm square, which were subjected to a permeation test.
(§4) In the permeation test, a diffusion cell of a modified Franz type (valid surface area: 1.1 cm^2, receptor phase: 16 ml) containing a phosphate buffer, pH7.1, was provided on the receptor phase side, which was stirred with a star-head magnet at 600 rpm with keeping at 37° C. […] A receptor phase fractionated was subjected to a high pressure liquid chromatography (HPLC) to quantify the drug which had permeated. […]
(§5) IM and ANP were determined using an UV spectrophotometer model SPD-6A (SHIMADZU) at wavelengths of 254 nm and 245 nm, respectively. […]

skin of Yucatan Micropig [4] = experiment: Dermal permeation test of antipyrine (ANP), Example 1, water/ethanol samples, modified Franz diffusion cell; format: in vitro ADME; conditions: promoting agent dissolved in ethanol and combined with water, 37° C., 30 to 48 hours
Excerpt: as §1, §2, §3, §4, §5

skin of Yucatan Micropig [5] = experiment: Dermal permeation test of IM, Example 2, water/1,3-butylene glycol samples; format: in vitro ADME; conditions: indomethacin 0.05 g, promoting agent 0.3 g, water 6.0 ml / 1,3-BG 4.0 ml
Protocol: as §3
(§6) In the permeation test, a diffusion cell of a modified Franz type (valid surface area: 1.1 cm^2, receptor phase: 16 ml) containing a phosphate buffer, pH7.1, was provided on the receptor phase side, which was stirred with a star-head magnet at 600 rpm with keeping at 37° C. On the donor side, 0.5 ml of a sample solution was contained and closed with a glass ball in order to prevent the evaporation of the sample solution. At a predetermined time, an aliquot was sampled and an equal volume of a buffer solution was supplemented. A receptor phase fractionated was subjected to a high pressure liquid chromatography (HPLC) to quantify the drug which had permeated. The permeation test was continued over a period of 30 to 48 hours.
A lipophilic agent indomethacin (IM) was used to compare the dermal absorption-promoting effect of p-menthane-3,8-diol (MDM: mixture of trans and cis forms) with those of l-menthol (LM) together with a control.

skin of Yucatan Micropig [6] = experiment: Dermal permeation test of IM, Example 3, water/1,3-butylene glycol samples, MDM, MPD and 1:1 combination; format: in vitro ADME; conditions: indomethacin 0.05 g, promoting agent 0.3 g total (combination 0.15 g + 0.15 g), water 6.0 ml / 1,3-BG 4.0 ml
Protocol: as §3
as §6, with “hours. […]” for “hours.”

mosquito = conditions: known from prior art; cited from earlier work

## CC12CCC(CC1)C(C)(C)O2 [1,8-cineol]
[1]
  promotion of dermal permeation of isosorbide dinitrate: promoted greatly

## CC(C)[C@@H]1CC[C@@H](C)C[C@H]1O [LM, l-menthol]
[1]
  promotion of dermal permeation of isosorbide dinitrate: promoted greatly
[2]
  promotion of dermal absorption of indomethacin: promotes the dermal absorption of indomethacin

## CC1CCC(C(C)(C)O)C(O)C1 (centres unmarked) [MDM, p-menthane-3,8-diol]
Skin of Yucatan Micropig [3]
  dermal permeation-promoting ability (cumulative permeation of IM vs time, FIG. 1): not as high as that of LM but was higher than that of MPD; also recorded: promoted the dermal permeation of IM
Skin of Yucatan Micropig [3]; listed as p-menthane-3,8-diol
  dermal permeation-promoting ability (cumulative permeation of IM vs time, FIG. 1): promoted the dermal permeation of both of lipophilic agent indomethacin and hydrophilic antipyrine
Skin of Yucatan Micropig [4]
  dermal permeation-promoting ability (cumulative permeation of ANP vs time, FIG. 2): exhibited a dermal permeation-promoting ability, although the ability was not as high as that of LM and MPD; also recorded: promoted the dermal permeation of ANP
Skin of Yucatan Micropig [4]; listed as p-menthane-3,8-diol
  dermal permeation-promoting ability (cumulative permeation of ANP vs time, FIG. 2): promoted the dermal permeation of both of lipophilic agent indomethacin and hydrophilic antipyrine
Skin of Yucatan Micropig [5]
  dermal permeation-promoting ability (cumulative permeation of IM vs time, FIG. 3): exhibited a dermal permeation-promoting ability, although the ability was not as high as that of LM; also recorded: promoted the dermal permeation of IM
Skin of Yucatan Micropig [6]
  dermal permeation-promoting ability (cumulative permeation of IM vs time, FIG. 4): higher than that of MPD
mosquito
  repelling effect on a mosquito: known to have a repelling effect on a mosquito

## CC1CCC(C(C)C)C(OCC(O)CO)C1 (stereo not drawn) [MPD, 3-l-menthoxypropane-1,2-diol]
[2]
  promotion of dermal absorption of indomethacin: somewhat lower than that of l-menthol; also recorded: promotes the dermal absorption of indomethacin
